Structures can show the parent of a compound that is named as a salt.
Tests used:
Conditions in all cases: incubation time: 27 h, anaerobic, 37 °C
[1] = tested on: Klebsiella aerogenes DSM 30053; experiment: fold change of Cadaverine concentration vs plate DMSO controls (fold change (ratio)); higher = more amine produced
[2] = tested on: Ruminococcus gnavus DSM 108212; experiment: fold change of 2-Phenylethylamine concentration vs plate DMSO controls (fold change (ratio)); higher = more amine produced
[3] = tested on: Klebsiella aerogenes DSM 30053; experiment: growth (OD595) fold change vs plate DMSO controls (fold change (ratio)); higher = more growth
[4] = tested on: Ruminococcus gnavus DSM 108212; experiment: as above
[5] = tested on: Ruminococcus gnavus DSM 108212; experiment: fold change of Tryptamine concentration vs plate DMSO controls (fold change (ratio)); higher = more amine produced
[6] = tested on: Klebsiella aerogenes DSM 30053; experiment: fold change of Histamine concentration vs plate DMSO controls (fold change (ratio)); higher = more amine produced
Experimental: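 Dose-response follow-up: bacteria (E. coli IAI1, K. aerogenes DSM 30053, C. sporogenes DSM 1664, R. gnavus DSM 108212) were grown anaerobically in mGAM at 37 °C for 27 h with compound at 0.6125-20 µM. Amines were measured in the whole culture by targeted LC-MS/MS. Metabolite fold change and OD595 fold change are relative to plate DMSO controls; n=2 biological replicates. OD fold changes are not clipped, so slightly negative values mean no growth.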

[7] = tested on: Klebsiella aerogenes DSM 30053; experiment: fold change of Putrescine concentration vs plate DMSO controls (fold change (ratio)); higher = more amine produced
[8] = tested on: Clostridium sporogenes DSM 1664; experiment: growth (OD595) fold change vs plate DMSO controls (fold change (ratio)); higher = more growth
[9] = tested on: Clostridium sporogenes DSM 1664; experiment: fold change of Tryptamine concentration vs plate DMSO controls (fold change (ratio)); higher = more amine produced

CC1(C)S[C@@H]2[C@H](NC(=O)[C@H](N)c3ccccc3)C(=O)N2[C@H]1C(=O)OC1OC(=O)c2ccccc21 (some centres undefined) [Talampicillin hydrochloride]
Conditions	fold change of 2-Phenylethylamine concentration, [2]	fold change of Cadaverine concentration, [1]	fold change of Histamine concentration, [6]	fold change of Putrescine concentration, [7]	fold change of Tryptamine concentration, [5]	growth, [3]	growth, [4]
0.6125 µM	0.103	0.97	0.999	1.03	0.121	0.802	1.73
1.25 µM	0.105	0.967	0.862	1.05	0.116	0.804	0.81
2.5 µM	0.112	0.958	1.31	1.01	0.136	0.905	0.918
5 µM	0.1	1.03	1.27	1.08	0.13	1.1	1.33
10 µM	0.138	1.09	0.959	1.11	0.174	1.1	0.729
20 µM	0.102	1.17	0.912	1.12	0.135	0.477	0.199

O=C1NCCN1c1ncc([N+](=O)[O-])s1 [Niridazole]
Conditions	fold change of Tryptamine concentration, [9]	growth, [8]
0.6125 µM	0.708	1.08
1.25 µM	0.607	1.15
2.5 µM	0.181	0.588
5 µM	0.0568	0.258
10 µM	0.0233	-0.0146
20 µM	0.018	-0.0213

NCc1ccccc1CC(=O)N[C@@H]1C(=O)N2C(C(=O)O)=C(CSc3nnnn3CC(=O)O)CS[C@H]12 [Ceforanide]
Conditions	fold change of Tryptamine concentration, [9]	growth, [8]
0.6125 µM	0.989	0.842
1.25 µM	1	0.767
2.5 µM	1.04	0.564
5 µM	0.576	0.36
10 µM	0.035	-0.0035
20 µM	0.0236	-0.0325

Oc1c(Cl)cc(Cl)c(Cl)c1Cc1c(O)c(Cl)cc(Cl)c1Cl [Hexachlorophene]
Conditions	fold change of Tryptamine concentration, [9]	growth, [8]
0.6125 µM	1.1	1.05
1.25 µM	1.03	0.819
2.5 µM	1.09	0.779
5 µM	0.693	0.711
10 µM	0.0218	-0.0128
20 µM	0.0164	-0.032

Cc1ncc([N+](=O)[O-])n1CC(C)O (centres undefined) [Secnidazole]
Conditions	fold change of Tryptamine concentration, [9]	growth, [8]
0.6125 µM	0.901	0.982
1.25 µM	0.773	1.11
2.5 µM	0.735	1.16
5 µM	0.035	0.156
10 µM	0.026	-0.0233
20 µM	0.0204	-0.023

N[C@@H](C(=O)N[C@@H]1C(=O)N2C(C(=O)O)=C(Cl)CC[C@H]12)c1ccccc1 [Loracarbef]
Conditions	fold change of Tryptamine concentration, [9]	growth, [8]
0.6125 µM	0.974	1.15
1.25 µM	0.86	0.723
2.5 µM	0.0468	-0.0147
5 µM	0.0243	-0.0473
10 µM	0.0223	-0.0388
20 µM	0.0215	-0.0407

C[C@]1(Cn2ccnn2)[C@H](C(=O)O)N2C(=O)C[C@H]2S1(=O)=O [Tazobactam]
Conditions	fold change of Tryptamine concentration, [9]	growth, [8]
0.6125 µM	1	1.01
1.25 µM	1.01	1.05
2.5 µM	1.11	1.01
5 µM	1.08	1.01
10 µM	0.984	0.648
20 µM	0.921	0.353
